Test results: US12318452B2, “Degraders of WEE1 kinase” (DANA-FARBER CANCER INSTITUTE, INC., priority 2018, dated 2025)

How the values were obtained:
[1] = system: Ikaros (IKZF1), Aiolos (IKZF3); assay: IKZF1 and IKZF3 degradation by immunoblot in MOLT4 cells; assay type: cell-based
Description: Whole cell lysates for immunoblotting were prepared by pelleting cells from each cell line at 4° C. (300 g) for 5 minutes. The resulting cell pellets were washed 1× with ice-cold PBS and then resuspended in RIPA lysis buffer (Sigma, cat #R0278) supplemented with protease and phosphatase inhibitor tablets (Roche cat #4906845001). Lysates were clarified at 14,000 rpm for 15 minutes at 4° C. prior to quantification by BCA assay (Pierce™, cat #23225). Whole cell lysates were loaded into Bolt 4-12% Bis-Tris Gels (Thermo Fisher, cat #NW04120BOX) and separated by electrophoreses at 95 V for 1.5 hours. The gels were transferred to a nitrocellulose membrane using the iBlot® Gel Transfer at P3 for 7 minutes (Thermo Fisher, cat #IB23001) and then blocked for 1 hour at room temperature in Odyssey® blocking buffer (LICOR® Biosciences, cat #927-50010). Membranes were probed using antibodies against the relevant proteins at 4° C. overnight in 20% Odyssey® Blocking Buffer in 1×TBST. Membranes were then washed three times with 1×TBST (at least 5 minutes per wash) followed by incubation with the IRDye® goat anti-mouse (LICOR®, cat #926-32210) or goat anti-rabbit (LICOR®, cat #926-32211) secondary antibody (diluted 1:10,000) in 20% Odyssey® Blocking Buffer in 1×TBST for 1 hour at room temperature. […]

CRBN−/− MOLT4 cells = assay: CellTiter-Glo cell viability, 72 hours; assay type: cell-based

C=CCn1c(=O)c2cnc(Nc3ccc(N4CCN(CCCNc5cccc6c5C(=O)N(C5CCC(=O)NC5=O)C6=O)CC4)cc3)nc2n1-c1cccc(C(C)(C)O)n1 (centres unmarked) [Compound 13, 4-((3-(4-(4-((2-allyl-1-(6-(2-hydroxypropan-2-yl)pyridin-2-yl)-3-oxo-2,3-dihydro-1H-pyrazolo[3,4-d]pyrimidin-6-yl)amino)phenyl)piperazin-1-yl)propyl)amino)-2-(2,6-dioxopiperidin-3-yl)isoindoline-1,3-dione]
IKZF1 / IKZF3 degradation after 24 hrs ([1]; 24 hrs of drug exposure): degradation of both IKZF1 and IKZF3 was apparent
IKZF1 / IKZF3 degradation at short time points ([1]; short time points (5-hour)): no degradation of either IKZF1 or IKZF3
Rescue of anti-proliferative activity, CRBN−/− versus WT MOLT4 cells (CRBN−/− MOLT4 cells; Example 28, FIG. 3A/3B, 72-hour): ~15 fold
Shift in cellular IC50, CRBN−/− versus parental MOLT4 cells (CRBN−/− MOLT4 cells; Example 32, FIG. 6A): approximately 6 fold
IC50 (CRBN−/− MOLT4 cells; Homo sapiens, MOLT-4, MOLT4 CRBN−/− cells, 72 hours, CellTiter-Glo, read-out: Antiproliferative IC50): 2220 nM
